Source: US10028966B2 (Avalyn Pharma Inc., priority 2014, dated 2018)
In brackets after ≈: the same amount, converted by molar mass.

Assays:
[1] = Aerosol tolerability analysis of low concentration dosage forms; design: key to Throat Irritation: 1 = none; 5 = strong; details: phosphate 5 mM, pH 7, pirfenidone 16 mg/mL; for Throat Irritation: 3.7 micron
Excerpt: Additional observations include maintaining osmolality between about 250 to about 500 mOsmo/kg. The tolerability for formulations with an osmolalty outside this range may be adjusted with modifications in the above formulation parameters and device output and aerosol particle size characteristics.

[2] = Extended-duration intratracheal and oral pharmacokinetic study; assay type: in vivo, Wistar rats; details: for AUC(0-t) / Cmax: Wistar, rat, plasma
Description: Previous intratracheal aerosol delivery (see Example 6) was performed as a single bolus instillation just above the first bifurcation of the lung. For in vivo efficacy studies, an attempt was made to mimic tidal inhaled breathing by splitting the dose into equal parts and administering as before, but over a 2 minute period. […] Doses were prepared in 0.45% sodium chloride solution and were administered as described in Table 21.
Plasma samples and entire lungs were taken at pre-dose, 2, 4, 6, 10, 30, 60 and 120 minutes post dosing. Materials were extracted and pirfenidone quantitated as mcg/mL plasma and μg/gram lung tissue.

[3] = Pharmacokinetics and tissue distribution (lung, plasma, heart, kidney) of co-solvent formulations, intratracheal bolus aerosol; assay type: in vivo, Sprague-Dawley rats; details: for concentration at 0.167 hr / concentration at 0.333 hr / concentration at 0.667 hr / concentration at 0 h / concentration at 4 min / concentration at 2.5 h / concentration at 0.167 h / concentration at 0.333 h / concentration at 0.667 h / concentration at 1 h: Sprague-Dawley, rat, 4 mg/kg, Pirfenidone, Mean, about 4 mg/kg IT aerosol; for concentration at 0.167 hr / concentration at 0.333 hr / concentration at 0.667 hr: other: intratracheal bolus aerosol (nebulizing catheter); for concentration at 0 h / concentration at 4 min / concentration at 2.5 h / concentration at 0.167 h / concentration at 0.333 h / concentration at 0.667 h / concentration at 1 h: other: intratracheal bolus aerosol; for concentration at 4 min: 0.0667 hr
Description: Selected formulations were prepared for pharmacokinetic analysis following aerosol delivery to rat lung. […] Formulations prepared for this study are outlined in Table 9. […] The sample was agitated until completely dissolved. […] Filtered samples were analyzed by HPLC.

[4] = target: T1, 2E1 (Homo sapiens, UniProt P05181); details: hepatic microsomes; cited from earlier work
T1 construct: In vitro metabolism studies with hepatic microsomes; from tissue; host or cells: hepatic microsomes

[5] = test system: inflammasome activation in 264.7 macrophages; assay: Inflammasome first signal activation (LPS, secreted IL-1β); assay type: cell-based; details: Macrophage; read-out: fifty-percent inhibitory concentration (IC50), first-signal inflammasome activation
[6] = inhaled or intranasal, intratracheal aerosol 2.5 mg/kg
[7] = inhaled or intranasal, intratracheal aerosol 5 mg/kg
[8] = inhaled or intranasal, intratracheal aerosol 10 mg/kg
[9] = intratracheal aerosol 2.5 mg/kg

T1 sequence (P05181 whole entry): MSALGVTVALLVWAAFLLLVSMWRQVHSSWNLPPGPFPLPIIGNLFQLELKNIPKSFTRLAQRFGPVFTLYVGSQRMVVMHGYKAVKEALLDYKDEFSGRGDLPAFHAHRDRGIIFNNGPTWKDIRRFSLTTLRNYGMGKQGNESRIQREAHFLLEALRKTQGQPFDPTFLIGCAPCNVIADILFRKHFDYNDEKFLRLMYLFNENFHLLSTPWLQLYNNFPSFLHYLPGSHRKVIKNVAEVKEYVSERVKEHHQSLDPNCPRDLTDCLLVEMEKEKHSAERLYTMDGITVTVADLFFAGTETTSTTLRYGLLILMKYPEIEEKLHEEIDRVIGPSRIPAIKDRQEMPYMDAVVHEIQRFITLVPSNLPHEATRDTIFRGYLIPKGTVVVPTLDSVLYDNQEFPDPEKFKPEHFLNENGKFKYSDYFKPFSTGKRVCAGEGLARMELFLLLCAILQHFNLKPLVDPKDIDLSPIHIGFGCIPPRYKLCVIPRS

## Cc1ccc(=O)n(-c2ccccc2)c1 [pirfenidone, 5-methyl-1-phenyl-2-(1H)-pyridone]
[1]; NaCl 50 mM
  Throat Irritation: 5
[1]; NaCl 150 mM
  Est. Osmolality: 400 mOsmo/Kg
  Throat Irritation: 3
[2]; 30 mg/kg PO, rat (Table 22)
  Lung Tissue Cmax: ~10 µg/mL
[2]; [6]
  AUC(0-t): 3200 ng·h/mL
  Cmax: 3400 ng/mL
[2]; [7]
  AUC(0-t): 5800 ng·h/mL
  Cmax: 8800 ng/mL
[2]; [8]
  AUC(0-t): 14600 ng·h/mL
  Cmax: 22800 ng/mL
[2]; oral gavage 10 mg/kg
  AUC(0-t): 4400 ng·h/mL
  Cmax: 3600 ng/mL
  Lung Tissue AUC(0-2 hr): 4.9 µg·h/g
  Lung Tissue Cmax: 3.5 μg/gram
[2]; oral gavage 30 mg/kg
  AUC(0-t): 12900 ng·h/mL
  Cmax: 9800 ng/mL
  Lung Tissue AUC(0-2 hr): 13.5 µg·h/g
  Lung Tissue Cmax: 9.8 μg/gram
[2]; oral gavage 100 mg/kg
  AUC(0-t): 24200 ng·h/mL
  Cmax: 26300 ng/mL
  Lung Tissue AUC(0-2 hr): 27.9 µg·h/g
  Lung Tissue Cmax: 33.6 μg/gram
[2]; [9]
  Lung Tissue AUC(0-2 hr): 3.5 µg·h/g
  Lung Tissue Cmax: 14.4 μg/gram
[2]; intratracheal aerosol 5 mg/kg
  Lung Tissue AUC(0-2 hr): 6.6 µg·h/g
  Lung Tissue Cmax: 27.9 μg/gram
[2]; intratracheal aerosol 10 mg/kg
  Lung Tissue AUC(0-2 hr): 14.5 µg·h/g
  Lung Tissue Cmax: 61.1 μg/gram
[2]; intratracheal aerosol over 2 minutes or oral gavage, Wistar rats
  adverse events: No adverse events were noted
[3]; heart, heart tissue, Group 1
  concentration at 0.167 hr: 4910 ng/g
  concentration at 0.333 hr: 3850 ng/g
  concentration at 0.667 hr: 1800 ng/g
  concentration at 0 h: 20 ng/g
  concentration at 4 min: 7900 ng/g
  concentration at 2.5 h: 90 ng/g
[3]; heart, heart tissue, Group 2
  concentration at 0.167 hr: 4100 ng/g
  concentration at 0.333 hr: 3130 ng/g
  concentration at 0.667 hr: 2190 ng/g
  concentration at 0 h: 190 ng/g
  concentration at 4 min: 5920 ng/g
  concentration at 2.5 h: 120 ng/g
[3]; heart, heart tissue, Group 6
  concentration at 0.167 hr: 4950 ng/g
  concentration at 0.333 hr: 3430 ng/g
  concentration at 0.667 hr: 2220 ng/g
  concentration at 0 h: 80 ng/g
  concentration at 4 min: 6320 ng/g
  concentration at 2.5 h: 120 ng/g
[3]; kidney, kidney tissue, Group 1
  concentration at 0 h: 10 ng/g
  concentration at 4 min: 9880 ng/g
  concentration at 0.167 h: 6620 ng/g
  concentration at 0.333 h: 4870 ng/g
  concentration at 0.667 h: 2860 ng/g
[3]; kidney, kidney tissue, Group 2
  concentration at 0 h: 470 ng/g
  concentration at 4 min: 10800 ng/g
  concentration at 0.167 h: 8300 ng/g
  concentration at 0.333 h: 7440 ng/g
  concentration at 0.667 h: 3310 ng/g
  concentration at 1 h: 1750 ng/g
  concentration at 2.5 h: 180 ng/g
[3]; kidney, kidney tissue, Group 6
  concentration at 0 h: 270 ng/g
  concentration at 4 min: 12900 ng/g
  concentration at 0.167 h: 6650 ng/g
  concentration at 0.333 h: 4870 ng/g
  concentration at 0.667 h: 3530 ng/g
  concentration at 1 h: 1710 ng/g
[3]; about 4 mg/kg intratracheal bolus aerosol, co-solvent formulations, rats
  adverse events: No adverse events were noted
[4]
  contribution to pirfenidone metabolism: less than 13%
[5]
  IC50: ~25 µg/mL (≈ 135 µM)
